The source of these data is patent publication US20230365556A1, “N-ACYL AMINO ACID COMPOUNDS AND METHODS OF USE” (Pliant Therapeutics, Inc., priority 2016, published 2023).

Where only a bound is given, the exact number is not on record here.

Sequence of αvβ1 integrin (αvβ1 expressing CHO cells) (P06756 31-889): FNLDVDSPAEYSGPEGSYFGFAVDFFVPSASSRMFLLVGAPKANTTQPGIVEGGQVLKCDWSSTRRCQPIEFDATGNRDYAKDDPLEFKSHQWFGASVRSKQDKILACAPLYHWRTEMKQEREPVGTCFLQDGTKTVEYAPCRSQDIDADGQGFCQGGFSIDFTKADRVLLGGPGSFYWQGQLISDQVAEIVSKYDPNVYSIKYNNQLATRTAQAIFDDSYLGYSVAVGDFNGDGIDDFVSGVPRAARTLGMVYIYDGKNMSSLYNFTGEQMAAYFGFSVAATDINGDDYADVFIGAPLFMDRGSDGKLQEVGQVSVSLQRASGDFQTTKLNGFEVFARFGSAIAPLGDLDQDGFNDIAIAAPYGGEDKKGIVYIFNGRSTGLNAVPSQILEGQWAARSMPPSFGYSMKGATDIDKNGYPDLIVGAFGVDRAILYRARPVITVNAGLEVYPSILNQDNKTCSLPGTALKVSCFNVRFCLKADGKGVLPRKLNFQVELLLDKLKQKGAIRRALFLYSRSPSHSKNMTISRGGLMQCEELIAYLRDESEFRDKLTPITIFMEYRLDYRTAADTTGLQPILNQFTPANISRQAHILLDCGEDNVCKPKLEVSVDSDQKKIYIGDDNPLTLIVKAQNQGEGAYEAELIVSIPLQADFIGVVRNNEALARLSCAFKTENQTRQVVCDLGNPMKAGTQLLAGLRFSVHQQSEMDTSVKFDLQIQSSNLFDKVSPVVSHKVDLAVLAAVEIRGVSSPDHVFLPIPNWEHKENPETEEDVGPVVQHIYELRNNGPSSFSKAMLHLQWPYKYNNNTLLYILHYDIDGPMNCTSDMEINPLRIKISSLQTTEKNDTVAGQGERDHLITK
Sequence of αvβ1 integrin (αvβ1 expressing CHO cells) (P06756 891-1048 partner): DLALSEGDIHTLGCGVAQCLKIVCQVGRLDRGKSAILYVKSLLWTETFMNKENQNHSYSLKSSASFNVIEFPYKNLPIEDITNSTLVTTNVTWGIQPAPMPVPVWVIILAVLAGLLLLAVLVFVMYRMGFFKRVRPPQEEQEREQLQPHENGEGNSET
Sequence of αvβ1 integrin (αvβ1 expressing CHO cells) (P05556 21-798): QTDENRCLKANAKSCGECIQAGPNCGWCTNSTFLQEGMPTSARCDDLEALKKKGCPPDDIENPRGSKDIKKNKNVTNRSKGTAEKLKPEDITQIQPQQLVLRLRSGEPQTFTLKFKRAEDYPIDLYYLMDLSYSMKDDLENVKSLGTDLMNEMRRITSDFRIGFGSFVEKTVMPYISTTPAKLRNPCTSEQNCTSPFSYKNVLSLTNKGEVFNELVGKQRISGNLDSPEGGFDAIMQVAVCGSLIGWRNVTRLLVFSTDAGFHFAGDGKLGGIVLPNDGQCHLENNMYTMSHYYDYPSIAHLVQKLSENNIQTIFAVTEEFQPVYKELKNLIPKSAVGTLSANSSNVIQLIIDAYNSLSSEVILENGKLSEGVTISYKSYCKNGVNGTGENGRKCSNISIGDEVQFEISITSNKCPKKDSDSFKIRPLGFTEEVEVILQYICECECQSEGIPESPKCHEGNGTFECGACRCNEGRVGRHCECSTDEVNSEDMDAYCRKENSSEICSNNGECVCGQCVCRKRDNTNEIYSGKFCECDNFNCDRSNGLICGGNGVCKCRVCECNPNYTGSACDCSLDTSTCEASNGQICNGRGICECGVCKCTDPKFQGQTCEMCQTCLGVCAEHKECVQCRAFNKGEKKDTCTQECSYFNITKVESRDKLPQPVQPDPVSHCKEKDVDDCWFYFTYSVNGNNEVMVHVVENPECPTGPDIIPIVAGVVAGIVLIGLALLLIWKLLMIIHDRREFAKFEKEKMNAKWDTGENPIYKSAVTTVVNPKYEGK

The assay concerns the target αvβ1 integrin (αvβ1 expressing CHO cells) (Homo sapiens (Human), UniProt P05556+P06756). The experiment in a line: Cell adhesion assay: inhibition of αvβ1 expressing CHO cells attaching to TGFβ1LAP. In kind it is cell-based. Conditions: 1 h at 37° C., crystal violet absorbance 595 nm, read-out: αvβ1 Inhibition IC50 (nM)-range. The method, then:
Example B1—Cell Adhesion Assay
In order to determine the potency, the compounds were assessed for their ability to inhibit αvβ1 expressing CHO cells attach to TGFβ1LAP. Microplates were coated overnight with 2 ug/ml TGFβ1LAP at 4° C., and blocked with 2% BSA/PBS for 30 min before the assay. Cells were detached and washed in PBS. After that the cells were resuspended in DMEM at 1.0×10^6 cells/ml, fifty microliter of cell suspension and fifty microliter of compound solution were added into the plate. The plates were incubated for one hour at 37° C. in humidified 5% carbon dioxide. Non-adherent cells were removed by centrifugation top side down at 58 g for 5 min. The attached cells were fixed and stained with 0.5% crystal violet (in 20% methanol and 1% formaldehyde) and the wells washed with PBS. Crystal violet was dissolved in 2% Triton-X in PBS. The relative number of cells in each well was evaluated by the absorbance at 595 nm in a microplate reader (Tecan). IC50 values were determined by non-linear regression with four parameters (Graphpad Prism 7.01, Y=Bottom+(Top−Bottom)/(1+10^((Log IC50−X)*HillSlope)).
The compounds tested were compound samples prepared according to procedures described in the Synthetic Examples section, with the stereochemical purity as indicated in the Examples indicated for Example or Compound No. 1-62. The compounds tested were predominantly S-configuration at the alpha carbon of the amino acid scaffold, except for compounds 123, 124, and 125 which were predominantly R-configuration at the alpha carbon of the amino acid scaffold. “Example or Compound No.” in Table B-1 refers to the compound illustrated in the examples for Example or Compound Nos. 1-62 (the compounds of Examples 1-62 are labeled as Compounds 1-62 in Table 1). “Example or Compound No.” in Table B-1 refers to the compound number as indicated in Table 1 or Table 2 for Example or Compound Nos. 63-126.
For `O=C(NC(CN1CC(OCCCc2ccc3c(n2)NCCC3)C1)C(=O)O)c1c(Cl)cccc1Cl` (racemic) [Example 28, (+/−)-2-(2,6-dichlorobenzamido)-3-(3-(3-(5,6,7,8-tetrahydro-1,8-naphthyridin-2-yl)propoxy)azetidin-1-yl)propanoic acid], the IC50 was in the range of 250 to 1000 nM.
To `O=C(NC(CN1CC(OCCCc2ccc3c(n2)NCCC3)C1)C(=O)O)c1c(Cl)cccc1Cl` (stereo not shown) [Compound 74, 2-(2,6-dichlorobenzamido)-3-(3-(3-(5,6,7,8-tetrahydro-1,8-naphthyridin-2-yl)propoxy)azetidin-1-yl)propanoic acid] belongs 250 to 1000 nM; to `Cn1ncc2cc(C(=O)NC(CCCCCCCc3ccc4c(n3)NCCC4)C(=O)O)ccc21` (stereo not shown) [Compound 82, 2-(1-methyl-1H-indazole-5-carboxamido)-9-(5,6,7,8-tetrahydro-1,8-naphthyridin-2-yl)nonanoic acid], 50 to 250 nM.
To `Cn1cc2cc(C(=O)NC(CCCCCCCc3ccc4c(n3)NCCC4)C(=O)O)ccc2n1` (stereo not shown) [Compound 86, 2-(2-methyl-2H-indazole-5-carboxamido)-9-(5,6,7,8-tetrahydro-1,8-naphthyridin-2-yl)nonanoic acid] belongs 50 to 250 nM; to `O=C(NC(CCCCCCCc1ccc2c(n1)NCCC2)C(=O)O)c1ccc2cn[nH]c2c1` (stereo not shown) [Compound 98], 50 to 250 nM; to `O=C(NC(Cc1ccc(OCCCc2ccc3c(n2)NCCC3)cc1)C(=O)O)c1c(Cl)cc(-c2cnc[nH]2)cc1Cl` (stereo not shown) [Compound 99], less than 50 nM.
For `N#Cc1ccc(Cl)c(C(=O)N[C@@H](CCCCCCCc2ccc3c(n2)NCCC3)C(=O)O)c1` [Compound 100] the value was less than 50 nM.
For the molecule `N#Cc1ccc(C(=O)N[C@@H](CCCCCCCc2ccc3c(n2)NCCC3)C(=O)O)c(F)c1` [Compound 101], the IC50 was less than 50 nM.
To `Cn1ncc2ccc(C(=O)N[C@@H](CCCCCCCc3ccc4c(n3)NCCC4)C(=O)O)cc21` [Compound 102] belongs 50 to 250 nM; to `O=C(N[C@@H](CCCCCCCc1ccc2c(n1)NCCC2)C(=O)O)c1ccc2[nH]ncc2c1` [Compound 103], 50 to 250 nM.
For `Cn1ncc2cc(C(=O)N[C@@H](CCCCCCCc3ccc4c(n3)NCCC4)C(=O)O)ccc21` [Compound 104] the value was 50 to 250 nM; for `O=C(N[C@@H](CCCCCCCc1ccc2c(n1)NCCC2)C(=O)O)c1ccc2cnn(C(F)F)c2c1` [Compound 105], 250 to 1000 nM; for `O=C(N[C@@H](CCCCCCCc1ccc2c(n1)NCCC2)C(=O)O)c1ccc2nn(C(F)F)cc2c1` [Compound 106], 250 to 1000 nM.
For `O=C(N[C@@H](CCCCCCCc1ccc2c(n1)NCCC2)C(=O)O)c1ccc2c(cnn2C(F)F)c1` [Compound 107] the value was 250 to 1000 nM.
Take `O=C(N[C@@H](CCCCCCCc1ccc2c(n1)NCCC2)C(=O)O)c1ccc2cn(C(F)F)nc2c1` [Compound 108]: the IC50 fell in the range of 50 to 250 nM.
For `Cn1cc2cc(C(=O)N[C@@H](CCCCCCCc3ccc4c(n3)NCCC4)C(=O)O)ccc2n1` [Compound 109] the value was 50 to 250 nM; for `O=C(N[C@@H](CCCCCCCc1ccc2c(n1)NCCC2)C(=O)O)c1cn[nH]c1-c1ccccc1` [Compound 110], 50 to 250 nM.
To `O=C(N[C@@H](CCCCCCCc1ccc2c(n1)NCCC2)C(=O)O)c1ccc(-c2cccnc2)cc1` [Compound 111] belongs 250 to 1000 nM.
Turning to `O=C(N[C@@H](CCCCCCCc1ccc2c(n1)NCCC2)C(=O)O)c1ccc(-c2ccncc2)cc1` [Compound 112], the IC50 is 50 to 250 nM.
For `Cn1cc(-c2ccc(C(=O)N[C@@H](CCCCCCCc3ccc4c(n3)NCCC4)C(=O)O)cc2)cn1` [Compound 113] the value was 50 to 250 nM.
On to `Cn1ncc2cccc(C(=O)N[C@@H](CCCCCCCc3ccc4c(n3)NCCC4)C(=O)O)c21` [Compound 114], for which the IC50 was less than 50 nM.
To `Cn1ncc2c(C(=O)N[C@@H](CCCCCCCc3ccc4c(n3)NCCC4)C(=O)O)cccc21` [Compound 115] belongs 250 to 1000 nM.
Regarding `O=C(N[C@@H](CCCCCCCc1ccc2c(n1)NCCC2)C(=O)O)c1cccc2[nH]ncc12` [Compound 116], the IC50 was less than 50 nM.
For `O=C(N[C@@H](Cc1ccc(OCCCc2ccc3c(n2)NCCC3)cc1)C(=O)O)c1ccccc1` [Example 1, (S)-2-benzamido-3-(4-(3-(5,6,7,8-tetrahydro-1,8-naphthyridin-2-yl)propoxy)phenyl)propanoic acid] the value was less than 50 nM.
For `Cn1cnc2ccc(C(=O)N[C@@H](Cc3ccc(OCCCc4ccc5c(n4)NCCC5)cc3)C(=O)O)cc21` [Example 2, (S)-2-(1-methyl-1H-benzo[d]imidazole-6-carboxamido)-3-(4-(3-(5,6,7,8-tetrahydro-1,8-naphthyridin-2-yl)propoxy)phenyl)propanoic acid] the value was less than 50 nM; for `O=C(N[C@@H](Cc1ccc(OCCCc2ccc3c(n2)NCCC3)cc1)C(=O)O)c1cnc(C(F)F)cn1` [Example 3, (S)-2-(5-(difluoromethyl)pyrazine-2-carboxamido)-3-(4-(3-(5,6,7,8-tetrahydro-1,8-naphthyridin-2-yl)propoxy)phenyl)propanoic acid], less than 50 nM; for `O=C(N[C@@H](Cc1ccc(OCCCc2ccc3c(n2)NCCC3)cc1)C(=O)O)c1cncc(-c2ccccc2)n1` [Example 4, (S)-2-(6-phenylpyrazine-2-carboxamido)-3-(4-(3-(5,6,7,8-tetrahydro-1,8-naphthyridin-2-yl)propoxy)phenyl)propanoic acid], greater than 1000 nM.
For `N#Cc1cc(Cl)c(C(=O)N[C@@H](Cc2ccc(OCCCc3ccc4c(n3)NCCC4)cc2)C(=O)O)c(Cl)c1` [Example 5, (S)-2-(2,6-dichloro-4-cyanobenzamido)-3-(4-(3-(5,6,7,8-tetrahydro-1,8-naphthyridin-2-yl)propoxy)phenyl)propanoic acid] the value was less than 50 nM; for `O=C(N[C@@H](Cc1ccc(OCCCc2ccc3c(n2)NCCC3)cc1)C(=O)O)c1c(F)cccc1C(F)(F)F` [Example 6, (S)-2-(2-fluoro-6-(trifluoromethyl)benzamido)-3-(4-(3-(5,6,7,8-tetrahydro-1,8-naphthyridin-2-yl)propoxy)phenyl)propanoic acid], less than 50 nM; for `O=C(N[C@@H](Cc1ccc(OCCCc2ccc3c(n2)NCCC3)cc1)C(=O)O)c1c(F)cccc1F` [Example 7, (S)-2-(2,6-difluorobenzamido)-3-(4-(3-(5,6,7,8-tetrahydro-1,8-naphthyridin-2-yl)propoxy)phenyl)propanoic acid], less than 50 nM.
As to `Cc1nccc(C(=O)N[C@@H](Cc2ccc(OCCCc3ccc4c(n3)NCCC4)cc2)C(=O)O)n1` [Example 8, (S)-2-(2-methylpyrimidine-4-carboxamido)-3-(4-(3-(5,6,7,8-tetrahydro-1,8-naphthyridin-2-yl)propoxy)phenyl)propanoic acid], the IC50 fell in the range of 50 to 250 nM.
To `Cn1cnc2cc(C(=O)N[C@@H](Cc3ccc(OCCCc4ccc5c(n4)NCCC5)cc3)C(=O)O)ccc21` [Example 9, (S)-2-(1-methyl-1H-benzo[d]imidazole-5-carboxamido)-3-(4-(3-(5,6,7,8-tetrahydro-1,8-naphthyridin-2-yl)propoxy)phenyl)propanoic acid] belongs 50 to 250 nM.
For `O=C(N[C@@H](Cc1ccc(OCCCc2ccc3c(n2)NCCC3)cc1)C(=O)O)c1ccc2ocnc2c1` [Example 10, (S)-2-(benzo[d]oxazole-5-carboxamido)-3-(4-(3-(5,6,7,8-tetrahydro-1,8-naphthyridin-2-yl)propoxy)phenyl)propanoic acid] the value was less than 50 nM.
Take `Nc1cc(C(=O)N[C@@H](Cc2ccc(OCCCc3ccc4c(n3)NCCC4)cc2)C(=O)O)ccc1O` [Example 11, (S)-2-(3-amino-4-hydroxybenzamido)-3-(4-(3-(5,6,7,8-tetrahydro-1,8-naphthyridin-2-yl)propoxy)phenyl)propanoic acid]: the IC50 is 50 to 250 nM.
To `O=CNc1cc(C(=O)N[C@@H](Cc2ccc(OCCCc3ccc4c(n3)NCCC4)cc2)C(=O)O)ccc1O` [Example 12, (S)-2-(3-formamido-4-hydroxybenzamido)-3-(4-(3-(5,6,7,8-tetrahydro-1,8-naphthyridin-2-yl)propoxy)phenyl)propanoic acid] belongs less than 50 nM; to `O=C(N[C@@H](Cc1ccc(OCCCc2ccc3c(n2)NCCC3)cc1)C(=O)O)c1ccncc1` [Example 13, (S)-2-(isonicotinamido)-3-(4-(3-(5,6,7,8-tetrahydro-1,8-naphthyridin-2-yl)propoxy)phenyl)propanoic acid], less than 50 nM.
Take `O=C(N[C@@H](Cc1ccc(OCCCc2ccc3c(n2)NCCC3)cc1)C(=O)O)c1cccnc1` [Example 14, (S)-2-(nicotinamido)-3-(4-(3-(5,6,7,8-tetrahydro-1,8-naphthyridin-2-yl)propoxy)phenyl)propanoic acid]: the 50% inhibitory concentration (IC50) was less than 50 nM.
